Source: patent US20260001875A1, “AMINOPYRIMIDINYL DERIVATIVES FOR THE TREATMENT OF PARKINSON'S DISEASE” (UNIVERSITY OF DUNDEE, priority 2022, published 2026)
Read-outs that look alike come from different tables or passages of the source.

Assays:
[1] = test system: Rab10 pThr73; experiment: Rab10 Thr73 dephosphorylation (immunoblot) in WT MEFs; type: cell-based, mouse; settings: for inhibition at 0.033 µM / inhibition at 1 µM: read-out: pRab10 inhibited in WT MEFs; for EC50: dose response, read-out: WT MEFs pRab10-dephosphrylation EC50
How it was run: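 Wild-type mouse embryonic fibroblasts in 6-well plates were treated with LRRK2 PROTACs, with two biological replicates per condition. Cells were washed in PBS and lysed on ice in buffer containing phosphatase and protease inhibitors plus 1% Triton X-100, then clarified at 15,000 g. Rab10 Thr73 phosphorylation was measured by quantitative immunoblotting of 15 to 20 μg protein on 4-12% Bis-Tris gels.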

[2] = target: T1, LRRK2^G2019S (Mus musculus, UniProt Q5S006, G2019S); experiment: Western blot LRRK2 degradation in LRRK2^G2019S MEFs; type: cell-based
T1 construct: endogenous in cells; host or cells: LRRK2[G2019S] mouse embryonic fibroblasts (MEFs)
T1 sequence (Q5S006 whole entry G2019S): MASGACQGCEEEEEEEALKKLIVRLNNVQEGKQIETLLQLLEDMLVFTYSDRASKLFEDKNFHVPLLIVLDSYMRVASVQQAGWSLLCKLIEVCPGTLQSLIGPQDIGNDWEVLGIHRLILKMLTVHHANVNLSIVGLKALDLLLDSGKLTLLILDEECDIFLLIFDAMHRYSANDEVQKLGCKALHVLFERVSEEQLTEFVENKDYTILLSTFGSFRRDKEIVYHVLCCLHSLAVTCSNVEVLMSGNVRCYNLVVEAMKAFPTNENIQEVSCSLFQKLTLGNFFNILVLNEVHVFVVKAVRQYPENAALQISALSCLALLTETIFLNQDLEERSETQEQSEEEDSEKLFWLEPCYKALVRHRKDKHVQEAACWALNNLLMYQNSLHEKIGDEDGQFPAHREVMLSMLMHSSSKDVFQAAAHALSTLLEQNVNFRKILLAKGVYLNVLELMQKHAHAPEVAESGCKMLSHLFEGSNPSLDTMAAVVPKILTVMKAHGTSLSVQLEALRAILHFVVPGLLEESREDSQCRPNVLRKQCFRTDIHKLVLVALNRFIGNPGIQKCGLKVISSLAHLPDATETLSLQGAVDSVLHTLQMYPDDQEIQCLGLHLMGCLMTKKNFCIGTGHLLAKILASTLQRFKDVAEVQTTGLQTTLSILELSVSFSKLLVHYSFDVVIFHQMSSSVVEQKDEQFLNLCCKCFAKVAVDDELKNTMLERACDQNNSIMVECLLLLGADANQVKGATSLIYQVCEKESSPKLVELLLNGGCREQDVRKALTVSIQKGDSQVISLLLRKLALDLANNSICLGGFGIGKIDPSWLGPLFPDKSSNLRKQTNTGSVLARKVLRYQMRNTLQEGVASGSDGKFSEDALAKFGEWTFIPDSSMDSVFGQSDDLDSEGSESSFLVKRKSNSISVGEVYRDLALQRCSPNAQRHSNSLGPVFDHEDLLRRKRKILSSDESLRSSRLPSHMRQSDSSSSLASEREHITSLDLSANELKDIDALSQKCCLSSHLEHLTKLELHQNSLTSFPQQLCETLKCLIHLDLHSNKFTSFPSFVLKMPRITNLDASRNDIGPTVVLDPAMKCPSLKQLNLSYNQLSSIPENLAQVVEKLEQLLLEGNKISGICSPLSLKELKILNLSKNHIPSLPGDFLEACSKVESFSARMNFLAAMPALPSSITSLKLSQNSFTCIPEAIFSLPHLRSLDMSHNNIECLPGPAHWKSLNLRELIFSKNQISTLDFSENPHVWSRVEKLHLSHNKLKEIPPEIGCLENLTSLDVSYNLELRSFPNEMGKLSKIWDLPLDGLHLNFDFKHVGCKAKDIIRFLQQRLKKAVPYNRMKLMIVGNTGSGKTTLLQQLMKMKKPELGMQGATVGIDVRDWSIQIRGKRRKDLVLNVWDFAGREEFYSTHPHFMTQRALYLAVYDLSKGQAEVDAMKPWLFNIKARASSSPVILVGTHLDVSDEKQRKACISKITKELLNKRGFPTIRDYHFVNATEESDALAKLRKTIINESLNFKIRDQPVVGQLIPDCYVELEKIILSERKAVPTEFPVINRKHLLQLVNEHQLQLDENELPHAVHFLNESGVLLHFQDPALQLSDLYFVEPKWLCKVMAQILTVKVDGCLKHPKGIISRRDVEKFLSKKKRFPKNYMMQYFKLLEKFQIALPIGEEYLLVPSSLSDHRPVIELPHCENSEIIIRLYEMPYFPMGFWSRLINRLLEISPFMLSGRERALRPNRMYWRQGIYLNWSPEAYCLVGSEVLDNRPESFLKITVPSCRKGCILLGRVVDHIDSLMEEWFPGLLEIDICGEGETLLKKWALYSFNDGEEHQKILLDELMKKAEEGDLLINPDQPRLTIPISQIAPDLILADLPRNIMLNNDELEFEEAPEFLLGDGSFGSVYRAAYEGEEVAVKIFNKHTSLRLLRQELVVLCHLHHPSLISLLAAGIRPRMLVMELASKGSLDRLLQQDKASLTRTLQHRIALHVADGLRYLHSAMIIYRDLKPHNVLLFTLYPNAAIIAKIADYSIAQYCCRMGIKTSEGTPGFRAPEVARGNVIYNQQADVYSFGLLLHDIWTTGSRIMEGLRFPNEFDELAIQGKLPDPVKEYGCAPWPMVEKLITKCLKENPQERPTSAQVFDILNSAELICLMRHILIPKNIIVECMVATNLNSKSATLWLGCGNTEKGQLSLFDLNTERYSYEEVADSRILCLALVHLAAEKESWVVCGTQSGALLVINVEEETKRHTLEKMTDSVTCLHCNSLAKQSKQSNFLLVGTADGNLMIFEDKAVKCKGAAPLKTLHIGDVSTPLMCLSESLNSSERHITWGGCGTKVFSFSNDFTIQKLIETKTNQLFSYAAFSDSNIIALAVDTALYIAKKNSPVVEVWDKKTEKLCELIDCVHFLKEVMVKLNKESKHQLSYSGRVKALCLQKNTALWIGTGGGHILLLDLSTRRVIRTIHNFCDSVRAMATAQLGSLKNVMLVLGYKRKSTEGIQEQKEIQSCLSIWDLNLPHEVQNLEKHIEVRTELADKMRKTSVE

[3] = target: LRRK2 (Homo sapiens, UniProt Q5S007); experiment: NanoBRET-based ternary binding and cooperativity assay; parameters: fused on or other part: NanoLuc luciferase fused to LRRK2 as the BRET donor tag; settings: permeabilized HEK293 cells, with VCB; read-out: IC50 LRRK2 engagement in the presence of VCB protein
Sequence of LRRK2 (Q5S007 whole entry, the tested form may be a part): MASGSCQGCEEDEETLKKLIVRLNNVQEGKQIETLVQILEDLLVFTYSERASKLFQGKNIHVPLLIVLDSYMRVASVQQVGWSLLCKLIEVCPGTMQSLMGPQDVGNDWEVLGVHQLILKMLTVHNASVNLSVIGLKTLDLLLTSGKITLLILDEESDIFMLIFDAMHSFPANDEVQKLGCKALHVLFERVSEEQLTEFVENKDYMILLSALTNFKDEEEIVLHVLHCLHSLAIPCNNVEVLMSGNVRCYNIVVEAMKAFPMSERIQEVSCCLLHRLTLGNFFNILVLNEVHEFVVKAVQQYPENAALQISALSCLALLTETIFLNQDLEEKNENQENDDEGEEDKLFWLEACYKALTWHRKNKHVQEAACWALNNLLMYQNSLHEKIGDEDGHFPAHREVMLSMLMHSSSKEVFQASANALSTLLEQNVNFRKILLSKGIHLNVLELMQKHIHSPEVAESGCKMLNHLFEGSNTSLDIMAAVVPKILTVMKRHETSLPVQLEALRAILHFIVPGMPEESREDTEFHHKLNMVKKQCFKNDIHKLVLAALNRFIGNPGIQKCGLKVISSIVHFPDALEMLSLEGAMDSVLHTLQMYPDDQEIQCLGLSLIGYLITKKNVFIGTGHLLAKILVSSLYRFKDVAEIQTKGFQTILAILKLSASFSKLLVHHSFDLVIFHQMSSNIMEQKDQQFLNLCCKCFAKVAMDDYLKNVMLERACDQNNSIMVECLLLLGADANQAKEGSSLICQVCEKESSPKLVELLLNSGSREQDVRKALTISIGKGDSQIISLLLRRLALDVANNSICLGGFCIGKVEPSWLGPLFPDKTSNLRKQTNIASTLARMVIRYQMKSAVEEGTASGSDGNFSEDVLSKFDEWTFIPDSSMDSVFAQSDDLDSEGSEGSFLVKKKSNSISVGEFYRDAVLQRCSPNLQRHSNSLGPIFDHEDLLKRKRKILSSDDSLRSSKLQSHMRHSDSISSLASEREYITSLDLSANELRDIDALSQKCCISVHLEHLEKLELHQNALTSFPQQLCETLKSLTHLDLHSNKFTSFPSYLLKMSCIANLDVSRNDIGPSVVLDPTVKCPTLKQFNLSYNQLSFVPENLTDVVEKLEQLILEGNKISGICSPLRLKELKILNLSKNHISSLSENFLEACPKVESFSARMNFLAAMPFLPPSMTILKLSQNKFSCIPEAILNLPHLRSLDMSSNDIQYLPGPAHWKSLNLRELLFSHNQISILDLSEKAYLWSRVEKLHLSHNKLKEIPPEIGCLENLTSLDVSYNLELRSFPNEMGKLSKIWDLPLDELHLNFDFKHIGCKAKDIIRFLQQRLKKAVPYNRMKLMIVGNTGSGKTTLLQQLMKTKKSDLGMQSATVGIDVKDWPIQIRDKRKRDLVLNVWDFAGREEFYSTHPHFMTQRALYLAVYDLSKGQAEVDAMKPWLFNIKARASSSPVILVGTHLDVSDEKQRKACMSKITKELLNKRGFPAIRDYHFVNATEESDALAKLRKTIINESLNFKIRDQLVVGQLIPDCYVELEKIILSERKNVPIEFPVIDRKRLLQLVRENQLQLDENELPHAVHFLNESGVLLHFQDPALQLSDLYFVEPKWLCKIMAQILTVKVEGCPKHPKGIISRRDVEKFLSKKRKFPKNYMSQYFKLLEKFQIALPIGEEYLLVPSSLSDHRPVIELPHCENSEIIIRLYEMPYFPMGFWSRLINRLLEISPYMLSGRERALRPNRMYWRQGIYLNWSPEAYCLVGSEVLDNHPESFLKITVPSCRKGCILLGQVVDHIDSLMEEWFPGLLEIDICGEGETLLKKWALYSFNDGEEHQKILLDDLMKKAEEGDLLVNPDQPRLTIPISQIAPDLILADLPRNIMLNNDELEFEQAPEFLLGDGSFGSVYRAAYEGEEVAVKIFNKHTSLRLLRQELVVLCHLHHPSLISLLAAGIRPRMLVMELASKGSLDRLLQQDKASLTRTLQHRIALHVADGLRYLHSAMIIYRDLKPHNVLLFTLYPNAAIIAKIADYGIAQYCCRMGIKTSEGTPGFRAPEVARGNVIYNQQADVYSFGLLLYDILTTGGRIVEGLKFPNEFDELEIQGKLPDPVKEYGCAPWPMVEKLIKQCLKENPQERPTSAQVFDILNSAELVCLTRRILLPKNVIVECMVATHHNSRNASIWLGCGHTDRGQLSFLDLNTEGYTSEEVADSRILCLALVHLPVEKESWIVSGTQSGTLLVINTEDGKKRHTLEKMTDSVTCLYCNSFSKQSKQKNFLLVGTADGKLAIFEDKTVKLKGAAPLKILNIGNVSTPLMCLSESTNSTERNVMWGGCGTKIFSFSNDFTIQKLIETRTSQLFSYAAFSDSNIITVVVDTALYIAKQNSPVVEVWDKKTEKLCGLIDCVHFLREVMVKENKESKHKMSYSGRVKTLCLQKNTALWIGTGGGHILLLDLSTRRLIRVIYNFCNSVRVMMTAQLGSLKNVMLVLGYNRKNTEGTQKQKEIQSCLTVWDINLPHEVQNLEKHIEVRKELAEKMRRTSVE
Procedure: The HEK293 cells were transfected with LRRK2-NanoLuc fusion vector (Promega, NV3401) following Promega's protocol and seeded into white 384-well plate (Corning3570) at a density of 6000 cells/well. The cells were then treated with 50 μg/mL of digitonin, 125 nM of LRRK2 tracer, testing compounds at decreasing concentrations (11 concentrations with 2-fold serial dilution starting from 10 μM) or testing compounds and VCB mix (11 concentrations with 2-fold serial dilution starting from 10 μM compound for the compound. The first 6 concentrations of VCB start from 32 μM with 2-fold dilution, the last 5 concentrations of VCB keep at 1 μM), and NanoBRET NanoGlo Substrate (Promega) at concentration recommended by the manufacturer's protocol. In the maximum signal control samples (DMSO control), DMSO was added instead of testing compounds. In the minimum signal control samples (no tracer control), DMSO and LRRK2 tracer dilution buffer were used to replace testing compounds and LRRK2 tracer separately. The filtered luminescence was measured within 10 min following addition of the substrate on a PHERAstar (BMG LABTECH) plate reader equipped with a 450-nm bandpass filter (donor) and a 600-nm long pass filter (acceptor). The fractional occupancy was calculated according to the equation: fractional occupancy=(mBRETtesting compound−mBRETno tracer control)/(mBRETDMSO control−mBRETno tracer control).

[4] = Mus musculus, 33 nM/4 h treatment
[5] = Mus musculus, 33 nM/24 h treatment
[6] = Mus musculus, 1 μM/4 h treatment
[7] = Mus musculus, 1 μM/24 h treatment
[8] = Mus musculus, time course at 300 nM, WT MEFs

With `CNc1nc(Nc2ccc(C(=O)N3CCN(C[C@H]4CC[C@@H](CSC(C)(C)[C@H](NC(=O)C5(F)CC5)C(=O)N5C[C@H](O)CC5C(=O)NCc5ccc(-c6scnc6C)cc5)CC4)CC3)cc2OC)ncc1Cl` (some centres unmarked) [XL01134] the inhibition at 0.033 µM [1, 4] was 0 to 40%, the inhibition at 0.033 µM [1, 5] was 0 to 60% and the inhibition at 1 µM [1, 6] was 10 to 95%. For the same compound, the inhibition at 1 µM [1, 7] was 30 to 100%, the EC50 ([1]; Mus musculus, 4 h treatment) was 74 nM and the Dmax at 0.3 µM [1, 8] was 68%. The “T1/2 of Rab10 dephosphorylation (WT)” value ([1]; time course at 300 nM, WT MEFs) was 2.1 h, the Dmax at 0.3 µM ([2]; time course at 300 nM) was 82% and the “T1/2 of LRRK2^G2019S degradation” value ([2]; time course at 300 nM) was 1.4 h. It also gave an IC50 [3] of 790 nM.

With `CNc1nc(Nc2ccc(C(=O)N3CCN(CCOCCOCCSC(C)(C)[C@H](NC(=O)C4(F)CC4)C(=O)N4C[C@H](O)C[C@H]4C(=O)NCc4ccc(-c5scnc5C)cc4)CC3)cc2OC)ncc1Cl` [SD75, (2S,4R)-1-((R)-3-((2-(2-(2-(4-(4-((5-chloro-4-(methylamino)pyrimidin-2-yl)amino)-3-methoxybenzoyl)piperazin-1-yl)ethoxy)ethoxy)ethyl)thio)-2-(1-fluorocyclopropane-1-carboxamido)-3-methylbutanoyl)-4-hydroxy-N-(4-(4-methylthiazol-5-yl)benzyl)pyrrolidine-2-carboxamide] the “Selectivity Index (pRab10 dephosphorylation, WT vs G2019S MEFs)” value ([1]; 24 h) was 6.0, the inhibition at 0.033 µM [1, 4] was 0 to 25% and the inhibition at 1 µM [1, 6] was 18 to 90%. The inhibition at 1 µM [1, 7] was 30 to 90%, the Dmax at 1 µM ([1]; Mus musculus, time course at 1000 nM, WT MEFs) was 41% and the EC50 ([1]; 24 h treatment) was 2270 nM. For the same compound, the “T1/2 of Rab10 dephosphorylation (WT)” value ([1]; time course at 1000 nM, WT MEFs) was 6.7 h, the “T1/2 of LRRK2^G2019S degradation” value ([2]; time course at 1000 nM) was 1.1 h and the IC50 [3] was 1400 nM.

In the case of `CNc1nc(Nc2ccc(C(=O)N3CCN(C[C@H]4CC[C@H](CSC(C)(C)[C@H](NC(=O)C5(F)CC5)C(=O)N5C[C@H](O)CC5C(=O)NCc5ccc(-c6scnc6C)cc5)CC4)CC3)cc2OC)ncc1Cl` (stereo partly drawn) [XL01126, (2S,4R)-1-((R)-3-((((1R,4R)-4-((4-(4-((5-chloro-4-(methylamino)pyrimidin-2-yl)amino)-3-methoxybenzoyl)piperazin-1-yl)methyl)cyclohexyl)methyl)thio)-2-(1-fluorocyclopropane-1-carboxamido)-3-methylbutanoyl)-4-hydroxy-N-(4-(4-methylthiazol-5-yl)benzyl)pyrrolidine-2-carboxamide], the inhibition at 0.033 µM [1, 5] is reported as 0 to 60%, the Dmax at 0.3 µM [1, 8] is reported as 84% and the “T1/2 of LRRK2^G2019S degradation” value ([2]; time course at 300 nM) is reported as 0.6 h. It also gave an IC50 [3] of 350 nM.
